Test results: patent US5688774A (priority 1995, dated 1997)
Read-outs that look alike come from different tables or passages of the source.

Columns and labels:
rat brain A1 receptor = target: T1, rat brain A1 receptor (Rattus norvegicus, UniProt P25099); assay: Displacement of [^3 H]PIA binding at A1 receptors; settings: for % Inhibition (A1): at 10^-4, rat brain
T1 construct: Rat cerebral cortical and striatal membranes were prepared; from tissue; host or cells: rat brain membranes (cerebral cortical)
T1 sequence (P25099 1-326): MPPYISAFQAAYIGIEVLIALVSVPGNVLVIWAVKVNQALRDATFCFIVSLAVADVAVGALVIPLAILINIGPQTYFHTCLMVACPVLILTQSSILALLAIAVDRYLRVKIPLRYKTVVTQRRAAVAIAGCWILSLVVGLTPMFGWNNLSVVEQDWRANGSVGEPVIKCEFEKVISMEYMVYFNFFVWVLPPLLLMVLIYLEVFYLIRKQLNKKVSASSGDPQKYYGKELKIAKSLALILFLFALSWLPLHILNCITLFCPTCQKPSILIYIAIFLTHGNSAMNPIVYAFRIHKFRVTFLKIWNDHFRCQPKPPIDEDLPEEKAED

rat brain A2a receptor = target: T2, rat brain A2a receptor (Rattus norvegicus, UniProt P30543); assay: Displacement of [^3 H]CGS 21680 binding at A2a receptors
T2 construct: A2 receptors from rat striatal membranes; from tissue; host or cells: rat striatal membranes
Protocol: Rat cerebral cortical and striatal membranes were prepared (Jacobson et al., J. Med. Chem., 35, 4143-4149 (1992)) and treated with ADA for 30 min at 37° C. prior to storage at -70° C.
The stock solutions were diluted with DMSO to a concentration of ≤0.1 mM prior to addition to the aqueous medium. The final concentration of DMSO in the assay medium was generally 2%.
At least six different concentrations spanning three orders of magnitude, adjusted appropriately for the IC50 of each compound, were used. […]. Pharmacol., 22, 3099-3108 (1973)).

[1] = target: T3, rat A3 adenosine receptors (Rattus norvegicus, UniProt P28647); assay: Inhibition of adenylate cyclase in CHO cells stably transfected with rat A3 adenosine receptors; type: cell-based; set-up: key to Effect on IB-MECA dose-resp. curve: no effect; settings: for Ratio Conc./Ki (A3): test concentration divided by Ki (A3)
T3 construct: expressed in transfected cells; host or cells: CHO cells, stably transfected
T3 sequence (P28647 1-320): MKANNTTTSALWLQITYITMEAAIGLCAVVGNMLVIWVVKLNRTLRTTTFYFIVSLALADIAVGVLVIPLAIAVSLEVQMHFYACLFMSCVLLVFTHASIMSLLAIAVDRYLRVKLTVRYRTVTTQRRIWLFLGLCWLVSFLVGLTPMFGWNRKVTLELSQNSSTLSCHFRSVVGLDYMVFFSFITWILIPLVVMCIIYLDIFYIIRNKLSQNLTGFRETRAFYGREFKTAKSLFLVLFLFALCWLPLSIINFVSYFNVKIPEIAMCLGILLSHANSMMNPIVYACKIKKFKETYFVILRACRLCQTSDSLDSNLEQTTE

[2] = [^3 H]PIA, rat brain membranes, Ki ± S.E.M., n = 3-6
[3] = at 10^-4, [^3 H]CGS 21680, rat brain
[4] = CHO, 1 μM forskolin, average ± S.E.M. for 2-3 determinations or a single value, read-out: % Inhib. (adenylate cyclase)
[5] = [^3 H]CGS 21680, rat brain membranes, Ki ± S.E.M., n = 3-6

T2 sequence (P30543 whole entry): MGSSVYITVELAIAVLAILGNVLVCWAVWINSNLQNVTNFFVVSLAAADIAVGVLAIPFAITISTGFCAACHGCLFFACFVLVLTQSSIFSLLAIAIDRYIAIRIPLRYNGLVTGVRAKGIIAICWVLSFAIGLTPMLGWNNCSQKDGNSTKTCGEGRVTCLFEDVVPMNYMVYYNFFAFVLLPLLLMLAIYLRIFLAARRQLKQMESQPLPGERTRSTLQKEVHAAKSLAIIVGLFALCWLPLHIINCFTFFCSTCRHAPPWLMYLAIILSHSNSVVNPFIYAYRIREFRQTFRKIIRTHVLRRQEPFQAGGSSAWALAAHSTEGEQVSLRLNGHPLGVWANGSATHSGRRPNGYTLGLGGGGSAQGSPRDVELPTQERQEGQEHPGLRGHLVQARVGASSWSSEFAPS

Row | Molecule | Ki (rat brain A1 receptor; [2]) | Ki (rat brain A2a receptor; [5]) | also measured
1 | CC(C)[Si]1(C(C)C)OC[C@H]2O[C@@H](n3cnc4c(NCc5cccc(I)c5)nc(Cl)nc43)[C@H](O)[C@@H]2O[Si](C(C)C)(C(C)C)O1 [Compound 45, 2-Chloro-9-(3,5-1,1,3,3-Tetraisopropyldisiloxyl-β-D-5-Ribofuranosyl)-N^6-(3-Iodobenzyl)adenine] | 66.3 ± 19.8 µM | – | % Inhibition (A2a) (rat brain A2a receptor; [3]): 18 ± 2%; inhibition at 100 µM [1, 4]: 8.7%; Ratio Conc./Ki (A3) [1]: 7.6
2 | CNc1nc(NCc2cccc(I)c2)c2ncn([C@@H]3OC[C@@H](O)[C@H]3O)c2n1 [Compound 29, 9-(β-D-Erythrofuranoside)-2-Methylamino-N^6-(3-Iodobenzyl)adenine] | – | – | Ki (rat brain A1 receptor): 0.66 ± 0.01 µM; Ki (rat brain A2a receptor): 3.39 ± 0.29 µM
3 | CNC(=O)[C@H]1O[C@@H](n2cnc3c(NNc4ccccc4)ncnc32)[C@H](O)[C@@H]1O [Compound 70, 6-(N'-phenylhydrazinyl)Purine-9-β-Ribofuranoside-5'-N-Methyluronamide] | – | – | Ki (rat brain A2a receptor): 7.16 µM
4 | CNC(=O)[C@@H]1C[C@H](F)[C@H](n2cnc3c(NCc4cccc(I)c4)nc(Cl)nc32)O1 [Compound 44, 2-Chloro-9-(2',3'-Dideoxy-2'-Fluoro-β-D-5'-Methyl-Arabinofuronamido)-N^6-(3-Iodobenzyl)adenine] | – | – | inhibition at 100 µM [1, 4]: 11.2%; Ratio Conc./Ki (A3) [1]: 5.6
5 | CNC(=O)[C@H]1O[C@@H](n2cnc3c(NCc4cccc(NC(=O)CCNC(=O)OC(C)(C)C)c4)ncnc32)[C@H](O)[C@@H]1O [Compound 67, N^6-[3-(N-6-Boc-β-Alanylamino)Benzyl]Adenosine-5'-Methyluronamide] | – | – | Ki (rat brain A2a receptor): 1.96 µM
6 | Clc1nc(NCc2cccc(I)c2)c2ncn(C3CCCO3)c2n1 (centres unmarked) [Compound 30, 2-Chloro-N-(3-Iodobenzyl)-9-(2-Tetrahydrofuryl)-9H-Purin-6-Amine] | – | – | Ki (rat brain A1 receptor): 0.174 ± 0.017 µM; Ki (rat brain A2a receptor): 4.12 ± 0.18 µM
7 | CSc1nc(NCc2cccc(I)c2)c2ncn(C)c2n1 [Compound 16, N^6-(3-Iodobenzyl)-9-Methyl-2-Methylthioadenine] | 1.89 ± 0.59 µM | 1.64 ± 0.39 µM | Effect on IB-MECA dose-resp. curve ([1]; 1 μM forskolin): c; inhibition at 100 µM [1, 4]: 19.5%; Ratio Conc./Ki (A3) [1]: 330
8 | Cn1cnc2c(NCc3cccc(I)c3)nc(Cl)nc21 [Compound 6, 2-Chloro-N^6-(3-Iodobenzyl)-9-Methyladenine] | 0.45 ± 0.11 µM | 2.7 ± 0.56 µM | –
9 | CNC(=O)[C@H]1O[C@@H](n2cnc3c(NCc4cccc(NC(=O)CCN)c4)ncnc32)[C@H](O)[C@@H]1O [Compound 66, N^6-[3(β-Alanylamino)Benzyl]Adenosine-5'-Methyluronamide] | – | – | Ki (rat brain A2a receptor): 0.144 ± 0.04 µM
10 | CN(C)c1nc(NCc2cccc(I)c2)c2ncn(C)c2n1 [Compound 12, 2-Dimethylamino-N^6-(3-Iodobenzyl)-9-Methyladenine] | 1.48 ± 0.12 µM | 9.89 ± 3.01 µM | –
11 | Cn1cnc2c(NCc3cccc(I)c3)nc(NN)nc21 [Compound 10, 2-Hydrazido-N^6-(3-Iodobenzyl)-9-Methyladenine] | 5.44 ± 0.05 µM | 19.6 ± 7.8 µM | –
12 | Cn1cnc2c(NCc3cccc(I)c3)nc(N)nc21 [Compound 9, 2-Amino-N^6-(3-iodobenzyl)-9-methyladenine] | 5.57 ± 1.32 µM | 3.22 ± 1.52 µM | –
13 | CNC(=O)[C@H]1O[C@@H](n2cnc3c(NCc4cccc(I)c4)nc(Cl)nc32)[C@H](O)[C@@H]1O [2-chloro-N^6-(3-iodobenzyl)-adenosine-5'-N-methyluronamide, reference compound] | – | – | agonist efficacy in inhibition of adenylate cyclase ([1]; in words, via rat A3 receptors): full agonist; agonist potency in inhibition of adenylate cyclase ([1]; in words, vs. other agonists): greater than that of other agonists
14 | Cn1cnc2c(NCc3cccc(I)c3)ncnc21 [Compound 3, N^6-(3-Iodobenzyl)-9-Methyladenine] | 5.73 ± 1.88 µM | 2.23 ± 1.33 µM | –
15 | OCCn1cnc2c(NCc3cccc(I)c3)ncnc21 [Compound 18, N^6-(3-Iodobenzyl)-9-Hydroxyethyladenine] | 22.9 ± 3.7 µM | 15.1 ± 1.6 µM | –
16 | 2-Chloro-9-(β-arabinosyl)adenine | 24.2 ± 7.9 µM | 90 ± 12.7 µM | –
17 | COc1nc(NCc2cccc(I)c2)c2ncn(C)c2n1 [Compound 15, N^6-(3-Iodobenzyl)-2-Methoxy-9-Methyladenine] | 0.5 ± 0.21 µM | 1.24 ± 0.11 µM | –

Row | Molecule | Ki (rat brain A1 receptor; [2]) | Ki (rat brain A2a receptor; [5]) | also measured
18 | O=C(O)Cn1cnc2c(NCc3cccc(I)c3)ncnc21 [Compound 21, N^6-(3-Iodobenzyladenin-9-yl)acetic Acid] | – | – | % Inhibition (A1) (rat brain A1 receptor; [^3 H]PIA): 17%; % Inhibition (A2a) (rat brain A2a receptor): 9%
19 | CNC(=O)[C@H]1O[C@@H](n2cnc3c(NCc4cccc(NC(=O)[C@@H]5CCCN5)c4)ncnc32)[C@H](O)[C@@H]1O [Compound 65, N^6-[3-(L-Prolylamino)Benzyl]Adenosine-5'-N-Methyluronamide] | – | – | Ki (rat brain A2a receptor): 0.215 ± 0.054 µM
20 | OC[C@H](O)Cn1cnc2c(NCc3cccc(I)c3)ncnc21 [Compound 20, S--N^6-(3-Iodobenzyl)-9-(2,3-Dihydroxypropyl)adenine] | 19.1 ± 2.2 µM | 41.8 ± 12.5 µM | –
21 | CNC(=O)[C@H]1O[C@@H](n2cnc3c(NCc4cccc(I)c4)nc(Cl)nc32)[C@H](OC(=O)c2ccccc2)[C@@H]1OC(=O)c1ccccc1 [2-Chloro-9-(2',3'-dibenzoyl-β-D-5-methyl-ribofuronamido)-N^6-(3-iodobenzyl)adenine] | – | – | % Inhibition (A1) (rat brain A1 receptor; [^3 H]PIA): 21%; % Inhibition (A2a) (rat brain A2a receptor): 7%
22 | CNC(=O)[C@H]1C[C@@H](n2cnc3c(NCc4cccc(I)c4)ncnc32)[C@H](O)[C@@H]1O (relative stereo) [Compound 61, (±)-9-[2α,3β-Dihydroxy-4β-(N-Methylcarbamoyl)Cyclopent-1β-yl)]-N^6-(3-Iodobenzyl)-adenine] | – | – | % Inhibition (A2a) (rat brain A2a receptor; [3]): 28 ± 5%
23 | CCCNc1nc(NCc2cccc(I)c2)c2ncn(C)c2n1 [Compound 13, N^6-(3 -Iodobenzyl)-9-Methyl-2-Propylaminoadenine] | – | – | Ki (rat brain A1 receptor): 0.33 ± 0.08 µM; Ki (rat brain A2a receptor): 1.72 ± 0.7 µM
24 | CNC(=O)[C@@H]1C[C@@H](OS(C)(=O)=O)[C@H](n2cnc3c(NCc4cccc(I)c4)nc(Cl)nc32)O1 [Compound 41, 2-Chloro-9-(3-Deoxy-2-Methanesulfonyl-β-D-5-Methyl-Ribofuronamido)-N^6-(3-Iodobenzyl)adenine] | 1.29 ± 0.08 µM | 41.9 ± 6.2 µM | –
25 | 9-(β-talosyl)adenine | 150 ± 28 µM | 54.7 ± 3.1 µM | –
26 | N#CCCCn1cnc2c(NCc3cccc(I)c3)ncnc21 [Compound 22, N^6-(3-Iodobenzyl)-9-(3-Cyanopropyl)adenine] | 6.03 ± 1.37 µM | 18.7 ± 5.8 µM | –
27 | Cn1cnc2c(NCc3cccc(I)c3)nc(Sc3ccncc3)nc21 [Compound 17, N^6-(3-Iodobenzyl)-9-Methyl-2-(4-Pyridylthio)adenine] | 0.84 ± 0.19 µM | 11.6 ± 4 µM | –
28 | CCCCCCNc1nc(NCc2cccc(I)c2)c2ncn(C)c2n1 [Compound 14, 2-Hexylamino-N^6-(3-Iodobenzyl)-9-Methyladenine] | – | – | Ki (rat brain A1 receptor): 4.48 ± 0.82 µM; % Inhibition (A2a) (rat brain A2a receptor): 11 ± 4%
29 | CNC(=O)[C@H]1O[C@@H](n2cnc3c(NOc4ccccc4)ncnc32)[C@H](O)[C@@H]1O [Compound 71] | – | – | Ki (rat brain A2a receptor): 66.3 µM
30 | CNc1nc(NCc2cccc(I)c2)c2ncn(C)c2n1 [Compound 11, N^6-(3-Iodobenzyl)-2-Methylamino-9-Methyladenine] | 0.648 ± 0.102 µM | 3.56 ± 0.84 µM | –
31 | CSc1nc(NCc2cccc(I)c2)c2ncn(C[C@@H](O)CO)c2n1 [Compound 19b, R-N^6-(3-Iodobenzyl)-9-(2,3-dihydroxypropyl)-2-methylthioadenine] | – | – | Effect on IB-MECA dose-resp. curve ([1]; 1 μM forskolin): c; inhibition at 40 µM ([1]; CHO, 40 μM, 1 μM forskolin, average ± S.E.M. for 2-3 determinations or a single value, read-out: % Inhib. (adenylate cyclase)): 7.4 ± 3.7%; Ratio Conc./Ki (A3) [1]: 4.6
32 | OC[C@@H](O)Cn1cnc2c(NCc3cccc(I)c3)ncnc21 [Compound 19, R--N^6-(3-Iodobenzyl)-9-(2,3-Dihydroxypropyl)adenine] | 13.8 ± 2.2 µM | 18.9 ± 1.9 µM | –
33 | CNC(=O)[C@@H]1C[C@H](N)[C@H](n2cnc3c(NCc4cccc(I)c4)nc(Cl)nc32)O1 [Compound 43, 2-Chloro-9-(2'-Amino-2',3'-dideoxy-β-D-5'-methyl-Arabinofuronamido)N^6-(3-Iodobenzyl)adenine] | 6.69 ± 0.74 µM | – | % Inhibition (A2a) (rat brain A2a receptor; [3]): 2%
34 | CNC(=O)[C@H]1O[C@@H](n2cnc3c(NCc4ccco4)ncnc32)[C@H](O)[C@@H]1O [Compound 74, 1-(6-Furfurylamino-9H-Purin-9-yl)-1-Deoxy-N-Methyl-β-D-Ribofuranosiduronamide] | 8.61 ± 2.55 µM | 6.22 ± 2.71 µM | –
